The record followed here is PubChem BioAssay (NCI).

Common to all, as to test: inhibition of tumour cell growth, NCI panel, 48 h
Assay [1] relates to ACHN renal.
Assay [2] has as its system CCRF-CEM leukemia.
The subject of assay [3] is EKVX NSCLC.
Assay [4] concerns NCI-H522 lung.
Assay [5] has as its system OVCAR-8 ovarian.
Assay [6] concerns PC-3 prostate.
For assay [7], the system named is RPMI-8226 leukemia.
Assay [8] has as its system SK-MEL-2 melanoma.
For assay [9], the system named is SN12C renal.
Assay [10] has as its system TK-10 renal.

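Assay format: 96-well plates, 48-hour exposure. GI50: concentration for 50% inhibition of growth. TGI denotes the concentration required for complete inhibition of growth.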

With `Cc1nc2[nH]ncn2c(=O)c1CCO`, the TGI in [1], in assay [2], in [3], in assay [4], in assay [5] and in [6] was over 10 µM in each case. Besides, the TGI in assay [7], in assay [8], in [9] and in [10] was over 10 µM in each case.
Turning to `COc1ccc(C2C3CCCC(C3=O)C(c3ccc(OC)cc3)N2N=O)cc1` (stereo not given), the TGI in assay [2] is over 70.7 µM; in assay [3] it was 99.6 µM; in [4] it was 34.6 µM; in [5], over 100 µM; in assay [7] it was 47.8 µM; in [8], 45.1 µM. The TGI in [9] stood at 39.2 µM.
For `O=C(NCCNc1nccc(-c2c(-c3cccc(O)c3)nc3sccn23)n1)c1ccccc1`, the GI50 was 6.43 µM in assay [1]; 3.38 µM in assay [2]; 25 µM in assay [3]; 5.76 µM in assay [4]; 11.1 µM in assay [5]; 11.9 µM in assay [6]. In addition, the GI50 in assay [7] is 6.97 µM; in assay [8], 2.94 µM; in assay [9], 9.04 µM; in assay [10] it was 11.7 µM. Further, the TGI in assay [1] is 34.9 µM; in assay [2] it was 34.1 µM; in assay [3], over 100 µM; in assay [4], 25.5 µM; in assay [5], 78.8 µM; in assay [6], 65.7 µM. The TGI in [7] was found to be 25.3 µM; in [8], 12.9 µM; in assay [9], 38.4 µM; in assay [10], 37.1 µM.
Turning to `COc1ccc(N2C(=O)C3c4[nH]c5ccc(F)cc5c4C4CCC(C(C)(C)C)CC4C3C2=O)cc1` (stereo not given), the TGI in [1], in [2], in assay [3], in assay [4], in [5] and in assay [6] was over 10 µM throughout. The TGI in assay [7], in assay [8], in assay [9] and in assay [10] was over 10 µM throughout.
In the case of `CCOC(=O)Cc1cnc(NC(NC(=O)CC)(C(F)(F)F)C(F)(F)F)s1`, the TGI in assay [1], in [2], in assay [3], in [4], in assay [7] and in assay [8] was over 100 µM throughout. The TGI in [9] and in [10] was over 100 µM in each case.
